# Results reported in article PMC6149898, “GPCR Modulation of Thieno[2,3-b]pyridine Anti-Proliferative Agents” (Molecules : A Journal of Synthetic Chemistry and Natural …, 2017).
# Experiments:
# GRPR = GRPR (Homo sapiens, UniProt P30550); assay: gpcrMAX PathHunter beta-arrestin
# GPR120 = GPR120 (Homo sapiens, UniProt Q5NUL3); assay: gpcrMAX PathHunter beta-arrestin
# CNS:SNB-19 = test system: CNS:SNB-19; set-up: method as in earlier work; details: NCI-60 panel; ref [4],[5],[6],[7]; cited from earlier work
# CHRM4 = CHRM4 (Homo sapiens, UniProt P08173); assay: gpcrMAX PathHunter beta-arrestin
# CHRM4, sequence (P08173 whole entry): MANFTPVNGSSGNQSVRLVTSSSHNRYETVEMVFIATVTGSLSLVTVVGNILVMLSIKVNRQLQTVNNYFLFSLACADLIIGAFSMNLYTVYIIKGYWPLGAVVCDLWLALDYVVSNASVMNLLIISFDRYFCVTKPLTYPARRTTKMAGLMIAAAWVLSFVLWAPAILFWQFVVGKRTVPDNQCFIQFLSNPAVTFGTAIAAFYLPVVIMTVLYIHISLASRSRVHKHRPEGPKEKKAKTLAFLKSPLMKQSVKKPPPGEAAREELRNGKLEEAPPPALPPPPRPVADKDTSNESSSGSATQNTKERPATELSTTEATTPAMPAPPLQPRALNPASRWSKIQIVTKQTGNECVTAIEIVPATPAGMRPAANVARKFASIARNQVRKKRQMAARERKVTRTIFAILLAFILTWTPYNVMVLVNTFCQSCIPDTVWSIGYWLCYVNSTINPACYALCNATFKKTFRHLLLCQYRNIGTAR
# CHRM3 = CHRM3 (Homo sapiens, UniProt P20309); assay: gpcrMAX PathHunter beta-arrestin
# CHRM3, sequence (P20309 whole entry): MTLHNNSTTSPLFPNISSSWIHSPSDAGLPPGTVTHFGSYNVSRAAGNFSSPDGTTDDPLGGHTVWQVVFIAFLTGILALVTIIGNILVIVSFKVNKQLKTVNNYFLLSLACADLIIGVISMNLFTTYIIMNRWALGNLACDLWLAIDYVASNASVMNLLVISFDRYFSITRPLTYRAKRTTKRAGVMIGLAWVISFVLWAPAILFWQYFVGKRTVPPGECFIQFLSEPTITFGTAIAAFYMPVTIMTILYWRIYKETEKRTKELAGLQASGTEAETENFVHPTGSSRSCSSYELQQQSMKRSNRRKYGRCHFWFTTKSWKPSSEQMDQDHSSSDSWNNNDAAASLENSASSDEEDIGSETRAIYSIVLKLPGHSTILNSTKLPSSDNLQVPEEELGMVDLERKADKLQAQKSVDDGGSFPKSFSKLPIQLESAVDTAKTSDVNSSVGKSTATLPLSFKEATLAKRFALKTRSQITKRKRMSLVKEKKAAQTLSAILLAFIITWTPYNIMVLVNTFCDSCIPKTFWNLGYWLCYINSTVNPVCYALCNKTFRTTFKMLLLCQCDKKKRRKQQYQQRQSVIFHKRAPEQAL
# PTGIR = PTGIR (Homo sapiens, UniProt P43119); assay: gpcrMAX PathHunter beta-arrestin
# EDG3 = EDG3 (Homo sapiens, UniProt Q99500); assay: gpcrMAX PathHunter beta-arrestin
# C3AR1 = C3AR1 (Homo sapiens, UniProt Q16581); assay: gpcrMAX PathHunter beta-arrestin
# BR:HS 578T = test system: BR:HS 578T; set-up: method as in earlier work; details: NCI-60 panel; ref [4],[5],[6],[7]; cited from earlier work
# SSTR5 = SSTR5 (Homo sapiens, UniProt P35346); assay: gpcrMAX PathHunter beta-arrestin
# SSTR5, sequence (P35346 whole entry): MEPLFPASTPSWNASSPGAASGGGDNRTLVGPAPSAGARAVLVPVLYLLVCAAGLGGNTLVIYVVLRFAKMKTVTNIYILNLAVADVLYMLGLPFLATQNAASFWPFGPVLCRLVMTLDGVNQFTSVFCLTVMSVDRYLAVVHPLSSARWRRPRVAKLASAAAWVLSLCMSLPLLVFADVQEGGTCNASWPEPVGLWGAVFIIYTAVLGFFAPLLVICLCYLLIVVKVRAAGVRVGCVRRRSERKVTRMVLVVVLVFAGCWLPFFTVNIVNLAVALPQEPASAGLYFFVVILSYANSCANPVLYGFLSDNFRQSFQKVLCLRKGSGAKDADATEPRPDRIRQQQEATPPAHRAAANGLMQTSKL
# CNR2 = CNR2 (Homo sapiens, UniProt P34972); assay: gpcrMAX PathHunter beta-arrestin
# CNR2, sequence (P34972 whole entry): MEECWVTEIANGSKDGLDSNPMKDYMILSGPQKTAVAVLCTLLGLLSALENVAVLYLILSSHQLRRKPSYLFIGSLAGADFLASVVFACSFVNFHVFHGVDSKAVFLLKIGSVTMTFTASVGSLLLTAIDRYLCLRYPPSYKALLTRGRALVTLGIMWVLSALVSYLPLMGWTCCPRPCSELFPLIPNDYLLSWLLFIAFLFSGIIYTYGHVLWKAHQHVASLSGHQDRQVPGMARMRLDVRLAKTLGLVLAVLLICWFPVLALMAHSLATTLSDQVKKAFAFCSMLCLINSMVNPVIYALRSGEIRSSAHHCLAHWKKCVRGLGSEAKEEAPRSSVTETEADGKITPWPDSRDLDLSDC
# OV:OVCAR-4 = test system: OV:OVCAR-4; set-up: method as in earlier work; details: NCI-60 panel; ref [4],[5],[6],[7]; cited from earlier work
# OXER1 = OXER1 (Homo sapiens, UniProt Q8TDS5); assay: gpcrMAX PathHunter beta-arrestin
# OXER1, sequence (Q8TDS5 whole entry): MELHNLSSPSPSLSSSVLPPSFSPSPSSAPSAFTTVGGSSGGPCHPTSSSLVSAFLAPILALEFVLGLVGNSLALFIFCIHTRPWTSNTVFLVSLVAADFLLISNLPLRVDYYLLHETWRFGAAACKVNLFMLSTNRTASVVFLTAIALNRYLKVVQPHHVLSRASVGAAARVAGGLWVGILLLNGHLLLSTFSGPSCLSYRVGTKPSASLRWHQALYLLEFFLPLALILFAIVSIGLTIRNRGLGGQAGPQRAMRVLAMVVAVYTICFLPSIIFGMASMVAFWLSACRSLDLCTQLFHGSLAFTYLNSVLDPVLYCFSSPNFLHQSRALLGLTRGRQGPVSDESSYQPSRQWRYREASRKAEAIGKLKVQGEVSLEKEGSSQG
# FFAR1 = FFAR1 (Homo sapiens, UniProt O14842); assay: gpcrMAX PathHunter beta-arrestin
# FFAR1, sequence (O14842 whole entry): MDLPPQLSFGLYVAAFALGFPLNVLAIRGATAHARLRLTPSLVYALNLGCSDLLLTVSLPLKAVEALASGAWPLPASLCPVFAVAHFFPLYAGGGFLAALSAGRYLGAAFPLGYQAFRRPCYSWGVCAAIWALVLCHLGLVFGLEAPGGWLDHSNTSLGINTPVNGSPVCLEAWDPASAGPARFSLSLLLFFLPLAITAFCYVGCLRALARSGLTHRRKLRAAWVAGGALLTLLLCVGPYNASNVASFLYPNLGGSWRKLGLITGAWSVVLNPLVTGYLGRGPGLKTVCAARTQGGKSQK
# P2RY2 = P2RY2 (Homo sapiens, UniProt P41231); assay: gpcrMAX PathHunter beta-arrestin
# P2RY2, sequence (P41231 whole entry): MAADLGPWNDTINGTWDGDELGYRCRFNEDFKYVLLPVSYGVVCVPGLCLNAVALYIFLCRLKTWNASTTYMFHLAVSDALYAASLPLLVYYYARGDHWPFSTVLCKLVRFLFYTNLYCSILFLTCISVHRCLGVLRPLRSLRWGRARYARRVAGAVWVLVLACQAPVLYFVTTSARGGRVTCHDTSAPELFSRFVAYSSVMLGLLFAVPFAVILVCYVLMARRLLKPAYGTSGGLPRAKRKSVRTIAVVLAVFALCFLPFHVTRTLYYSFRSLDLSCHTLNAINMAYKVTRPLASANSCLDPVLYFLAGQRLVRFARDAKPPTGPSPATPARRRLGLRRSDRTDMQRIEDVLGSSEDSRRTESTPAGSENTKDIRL
# ME:LOX IMVI = test system: ME:LOX IMVI; set-up: method as in earlier work; details: NCI-60 panel; ref [4],[5],[6],[7]; cited from earlier work
# CXCR3 = CXCR3 (Homo sapiens, UniProt P49682); assay: gpcrMAX PathHunter beta-arrestin
# LE:HL-60(TB) = test system: LE:HL-60(TB); set-up: method as in earlier work; details: NCI-60 panel; ref [4],[5],[6],[7]; cited from earlier work
# HTR2A = HTR2A (Homo sapiens, UniProt P28223); assay: gpcrMAX PathHunter beta-arrestin
# BR:BT-549 = test system: BR:BT-549; set-up: method as in earlier work; details: NCI-60 panel; ref [4],[5],[6],[7]; cited from earlier work
# ADRA2C = ADRA2C (Homo sapiens, UniProt P18825); assay: gpcrMAX PathHunter beta-arrestin
# CCKAR = CCKAR (Homo sapiens, UniProt P32238); assay: gpcrMAX PathHunter beta-arrestin
# BDKRB2 = BDKRB2 (Homo sapiens, UniProt P30411); assay: gpcrMAX PathHunter beta-arrestin
# MC1R = MC1R (Homo sapiens, UniProt Q01726); assay: gpcrMAX PathHunter beta-arrestin
# DRD5 = DRD5 (Homo sapiens, UniProt P21918); assay: gpcrMAX PathHunter beta-arrestin
# CALCR-RAMP3 = CALCR-RAMP3 (Homo sapiens, UniProt O60896+P30988); assay: gpcrMAX PathHunter beta-arrestin
# OV:OVCAR-8 = test system: OV:OVCAR-8; set-up: method as in earlier work; details: NCI-60 panel; ref [4],[5],[6],[7]; cited from earlier work
# OPRK1 = OPRK1 (Homo sapiens, UniProt P41145); assay: gpcrMAX PathHunter beta-arrestin
# OPRK1, sequence (P41145 whole entry): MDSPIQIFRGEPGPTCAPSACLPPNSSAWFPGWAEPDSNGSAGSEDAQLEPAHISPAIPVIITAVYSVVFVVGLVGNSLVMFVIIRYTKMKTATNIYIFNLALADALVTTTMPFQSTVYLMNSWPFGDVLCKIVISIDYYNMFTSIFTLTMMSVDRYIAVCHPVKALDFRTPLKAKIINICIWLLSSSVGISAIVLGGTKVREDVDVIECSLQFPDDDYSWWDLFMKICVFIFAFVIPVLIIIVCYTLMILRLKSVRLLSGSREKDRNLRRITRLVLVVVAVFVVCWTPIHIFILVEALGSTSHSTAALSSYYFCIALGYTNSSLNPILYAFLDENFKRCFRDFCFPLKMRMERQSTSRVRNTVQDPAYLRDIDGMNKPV
# P2RY6 = P2RY6 (Homo sapiens, UniProt Q15077); assay: gpcrMAX PathHunter beta-arrestin
# P2RY6, sequence (Q15077 whole entry): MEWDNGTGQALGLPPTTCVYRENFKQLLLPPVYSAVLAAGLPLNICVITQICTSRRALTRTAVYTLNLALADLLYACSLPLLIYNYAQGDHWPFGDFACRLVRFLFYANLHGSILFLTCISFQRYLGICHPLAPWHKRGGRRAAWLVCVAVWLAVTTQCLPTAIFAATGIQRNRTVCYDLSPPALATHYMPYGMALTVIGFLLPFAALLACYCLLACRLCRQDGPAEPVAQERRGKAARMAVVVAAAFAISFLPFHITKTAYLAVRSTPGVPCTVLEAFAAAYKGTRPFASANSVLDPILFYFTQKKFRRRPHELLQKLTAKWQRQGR
# EDG5 = EDG5 (Homo sapiens, UniProt O95136); assay: gpcrMAX PathHunter beta-arrestin
# CCR6 = CCR6 (Homo sapiens, UniProt P51684); assay: gpcrMAX PathHunter beta-arrestin
# CCR6, sequence (P51684 whole entry): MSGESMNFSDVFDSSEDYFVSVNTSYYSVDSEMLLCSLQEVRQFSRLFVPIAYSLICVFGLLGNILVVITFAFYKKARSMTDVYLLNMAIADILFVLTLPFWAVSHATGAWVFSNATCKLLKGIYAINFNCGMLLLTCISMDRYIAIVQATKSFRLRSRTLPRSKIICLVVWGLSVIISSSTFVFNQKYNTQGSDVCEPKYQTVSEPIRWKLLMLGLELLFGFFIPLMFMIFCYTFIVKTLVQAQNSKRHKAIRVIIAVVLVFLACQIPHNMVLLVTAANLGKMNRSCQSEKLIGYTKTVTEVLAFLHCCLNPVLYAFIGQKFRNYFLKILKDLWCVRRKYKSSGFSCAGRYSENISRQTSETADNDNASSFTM
# AGTRL1 = AGTRL1 (Homo sapiens, UniProt P35414); assay: gpcrMAX PathHunter beta-arrestin
# AGTRL1, sequence (P35414 whole entry): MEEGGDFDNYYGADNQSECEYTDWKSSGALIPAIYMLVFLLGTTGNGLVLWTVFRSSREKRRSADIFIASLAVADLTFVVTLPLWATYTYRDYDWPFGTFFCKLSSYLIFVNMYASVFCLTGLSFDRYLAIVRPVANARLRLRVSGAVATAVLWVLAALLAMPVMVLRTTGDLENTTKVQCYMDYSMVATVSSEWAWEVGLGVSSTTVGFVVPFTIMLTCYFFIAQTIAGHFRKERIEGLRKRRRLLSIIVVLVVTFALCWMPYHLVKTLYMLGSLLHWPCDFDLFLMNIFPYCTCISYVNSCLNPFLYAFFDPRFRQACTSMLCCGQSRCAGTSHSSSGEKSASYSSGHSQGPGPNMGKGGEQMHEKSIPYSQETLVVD
# GLP2R = GLP2R (Homo sapiens, UniProt O95838); assay: gpcrMAX PathHunter beta-arrestin
# RE:RXF 393 = test system: RE:RXF 393; set-up: method as in earlier work; details: NCI-60 panel; ref [4],[5],[6],[7]; cited from earlier work
# MCHR1 = MCHR1 (Homo sapiens, UniProt Q99705); assay: gpcrMAX PathHunter beta-arrestin
# C5AR1 = C5AR1 (Homo sapiens, UniProt P21730); assay: gpcrMAX PathHunter beta-arrestin
# CO:SW-620 = test system: CO:SW-620; set-up: method as in earlier work; details: NCI-60 panel; ref [4],[5],[6],[7]; cited from earlier work
# CHRM5 = CHRM5 (Homo sapiens, UniProt P08912); assay: gpcrMAX PathHunter beta-arrestin
# CHRM5, sequence (P08912 whole entry): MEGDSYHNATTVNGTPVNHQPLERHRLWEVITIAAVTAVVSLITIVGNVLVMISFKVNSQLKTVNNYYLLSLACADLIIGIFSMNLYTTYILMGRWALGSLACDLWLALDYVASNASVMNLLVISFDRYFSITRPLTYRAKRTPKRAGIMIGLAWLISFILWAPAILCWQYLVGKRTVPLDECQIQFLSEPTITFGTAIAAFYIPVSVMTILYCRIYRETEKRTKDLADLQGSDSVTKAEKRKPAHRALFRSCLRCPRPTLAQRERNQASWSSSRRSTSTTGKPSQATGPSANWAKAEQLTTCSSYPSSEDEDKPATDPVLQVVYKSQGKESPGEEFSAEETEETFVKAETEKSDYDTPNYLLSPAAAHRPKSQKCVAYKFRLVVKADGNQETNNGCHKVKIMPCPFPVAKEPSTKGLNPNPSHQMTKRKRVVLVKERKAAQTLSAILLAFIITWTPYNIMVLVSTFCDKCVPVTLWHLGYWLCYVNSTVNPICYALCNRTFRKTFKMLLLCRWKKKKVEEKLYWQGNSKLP
# ME:MALME-3M = test system: ME:MALME-3M; set-up: method as in earlier work; details: NCI-60 panel; ref [4],[5],[6],[7]; cited from earlier work
# CHRM1 = CHRM1 (Homo sapiens, UniProt P11229); assay: gpcrMAX PathHunter beta-arrestin
# ME:SK-MEL-5 = test system: ME:SK-MEL-5; set-up: method as in earlier work; details: NCI-60 panel; ref [4],[5],[6],[7]; cited from earlier work
smiles,measurement,setting,value
Cc1c(Cl)cccc1NC(=O)c1sc2nc3c(cc2c1N)C(=O)CCC3 [Compound 1],inhibition at 10 µM,GRPR,11%
same,inhibition at 10 µM,GPR120,4%
same,GI50,CNS:SNB-19,70.1 nM
same,inhibition at 10 µM,CHRM4,-10%
same,inhibition at 10 µM,CHRM3,14%
same,inhibition at 10 µM,PTGIR,8%
same,inhibition at 10 µM,EDG3,-2%
same,inhibition at 10 µM,C3AR1,-3%
same,GI50,BR:HS 578T,48.2 nM
same,inhibition at 10 µM,SSTR5,-3%
same,inhibition at 10 µM,CNR2,16%
same,GI50,OV:OVCAR-4,604 nM
same,inhibition at 10 µM,OXER1,-1%
same,inhibition at 10 µM,FFAR1,-59%
same,inhibition at 10 µM,P2RY2,-14%
same,GI50,ME:LOX IMVI,80.3 nM
same,inhibition at 10 µM,CXCR3,-19%
same,GI50,LE:HL-60(TB),103 nM
same,inhibition at 10 µM,HTR2A,-1%
same,GI50,BR:BT-549,321 nM
same,inhibition at 10 µM,ADRA2C,-14%
same,inhibition at 10 µM,CCKAR,6%
same,inhibition at 10 µM,BDKRB2,1%
same,inhibition at 10 µM,MC1R,-16%
same,inhibition at 10 µM,DRD5,-31%
same,inhibition at 10 µM,CALCR-RAMP3,17%
same,GI50,OV:OVCAR-8,279 nM
same,inhibition at 10 µM,OPRK1,-162%
same,inhibition at 10 µM,P2RY6,-17%
same,inhibition at 10 µM,EDG5,-1%
same,inhibition at 10 µM,CCR6,-6%
same,inhibition at 10 µM,AGTRL1,5%
same,inhibition at 10 µM,GLP2R,16%
same,GI50,RE:RXF 393,41.8 nM
same,inhibition at 10 µM,MCHR1,-77%
same,inhibition at 10 µM,C5AR1,2%
same,GI50,CO:SW-620,48.6 nM
same,inhibition at 10 µM,CHRM5,8%
same,GI50,ME:MALME-3M,36.3 nM
same,inhibition at 10 µM,CHRM1,0%
same,GI50,ME:SK-MEL-5,237 nM
